The results in this text go back to patent US8865703B2, “Pyridyltriazoles” (Boehringer Ingelheim International GmbH, priority 2010, dated 2014).

T1 sequence (P15056 whole entry V600E): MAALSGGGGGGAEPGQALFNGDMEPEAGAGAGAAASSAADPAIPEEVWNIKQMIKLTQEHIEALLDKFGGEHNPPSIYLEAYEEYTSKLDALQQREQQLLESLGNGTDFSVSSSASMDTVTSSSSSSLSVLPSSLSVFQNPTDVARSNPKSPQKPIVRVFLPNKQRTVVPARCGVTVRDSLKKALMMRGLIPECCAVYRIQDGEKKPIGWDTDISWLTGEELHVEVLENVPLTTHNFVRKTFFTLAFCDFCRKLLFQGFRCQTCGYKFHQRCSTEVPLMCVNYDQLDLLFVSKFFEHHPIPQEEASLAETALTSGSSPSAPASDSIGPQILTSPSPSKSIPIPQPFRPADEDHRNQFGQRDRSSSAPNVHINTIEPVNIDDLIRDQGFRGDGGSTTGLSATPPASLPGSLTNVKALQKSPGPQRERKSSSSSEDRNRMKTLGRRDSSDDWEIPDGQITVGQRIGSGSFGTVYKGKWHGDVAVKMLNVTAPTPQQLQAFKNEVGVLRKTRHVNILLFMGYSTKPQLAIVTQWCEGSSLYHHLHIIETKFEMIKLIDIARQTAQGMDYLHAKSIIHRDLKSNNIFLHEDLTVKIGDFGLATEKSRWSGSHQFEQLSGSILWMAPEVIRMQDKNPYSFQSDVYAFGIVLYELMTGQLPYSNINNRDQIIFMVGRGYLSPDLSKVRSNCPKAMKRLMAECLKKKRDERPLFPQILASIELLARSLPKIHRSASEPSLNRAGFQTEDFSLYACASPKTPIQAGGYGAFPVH

This assay concerns the target T1, B-Raf (V600E)-kinase (Homo sapiens, UniProt P15056, V600E).
T1 construct: purchased Upstate
The assay is described as follows: Kinase test B-Raf (V600E). It counts as biochemical. To be noted: 1 h incubation with kinase before start, 250 μM ATP, biotinylated MEK1 substrate. As to the method:
Kinase Test B-Raf (V600E)
In a dilution series 10 μL/well of test substance solution are placed in a multiwell plate. The dilution series is selected so that generally a range of concentrations of 2 μM to 0.119 nM or 0.017 nM is covered. If necessary the initial concentration of 2 μM is changed to 50 μM, 10 μM, 0.4 μM or 0.2857 μM and further dilution is carried out accordingly. The final concentration of DMSO is 5%. 10 μL/well of the B-Raf (V600E)-kinase solution are pipetted in (containing 0.5 ng B-Raf (V600E)-kinase, e.g. from Upstate) in 20 mM tris-HCl pH 7.5, 0.1 mM EDTA, 0.1 mM EGTA, 0.286 mM sodium orthovanadate, 10% glycerol, 1 mg/mL bovine serum albumin, 1 mM dithiothreitol) and the mixture is incubated for 1 h at RT with shaking. The kinase reaction is started by the addition of 20 μL/well ATP solution [final concentration: 250 μM ATP, 30 mM tris-HCl pH 7.5, 0.02% Brij, 0.2 mM sodium orthovanadate, 10 mM magnesium acetate, 0.1 mM EGTA, phosphatase cocktail (Sigma, # P2850, dilution recommended by the manufacturer)] and 10 μL/well MEK1 solution [containing 50 ng biotinylated MEK1 (prepared from purified MEK1 according to standard procedure, e.g. with EZ-Link Sulpho-NHS-LC-Biotin reagent, Pierce, #21335)] and carried out for 60 min at RT with constant shaking. The reaction is stopped by the addition of 12 μL/well of a 100 mM EDTA solution and incubation is continued for a further 5 min. 55 μL/well of the reaction solution are transferred into a streptavidin-coated plate (e.g. Streptawell HighBond, Roche, #11989685001) and gently shaken for 1 h at RT in order to bind biotinylated MEK1 to the plate. After elimination of the liquid the plate is washed five times with 200 μL/well of 1×PBS and 100 μL/well solution of primary antibody plus europium-labelled secondary antibody [Anti Phospho-MEK (Ser217/221), Cell Signaling, #9121 and Eu-N1 labelled goat-anti-rabbit antibody, Perkin Elmer, # AD0105] is added, the primary antibody is diluted 1:2000 and the secondary antibody is diluted to 0.4-0.5 μg/mL in Delfia Assay Buffer (Perkin Elmer, #1244-111). After 1 h shaking at RT the solution is poured away and washed five times with 200 μL/well Delfia Wash Buffer (Perkin Elmer, #4010-0010/#1244-114). After the addition of 200 μL/well Enhancement Solution (Perkin Elmer, #4001-0010/#1244-105) the mixture is shaken for 10 min at RT and then measured in a Wallac Victor using the program “Delfia Time Resolved Fluorescence (Europium)”. IC50 values are obtained from these dosage-activity curves using a software program (GraphPadPrizm).
Consider `CCc1cc(C(=O)Nc2cnc(C)c(-n3cc(-c4cncc(N5CCN(CC)CC5)c4)nn3)c2)nn1C(C)(C)C` [I-31], for which the half-inhibitory concentration (IC50) stood at 12 nM. With `COCCCN1CCN(c2cncc(-c3cn(-c4cc(NC(=O)c5cc(C)n(C(C)(C)C)n5)cnc4C)nn3)c2)CC1` [I-23], it took 14 nM to reach half-maximal inhibition (IC50). Under `CCc1cc(C(=O)Nc2cnc(C)c(-n3cc(-c4cncc(N5CCN(C(C)C)CC5)c4)nn3)c2)nn1C(C)(C)C` [I-27] stands 12 nM. Under `Cc1ncc(NC(=O)c2cc(C)n(C(C)(C)C)n2)cc1-n1cc(-c2cncc(N3CCN(CCOC(C)C)CC3)c2)nn1` [I-25] stands 16 nM; under `Cc1ncc(NC(=O)c2ccc(C(C)(C)C)s2)cc1-n1cc(-c2cncc(N3CCN(C(C)C)CC3)c2)nn1` [I-13], 5 nM. Under `CCN1CCN(c2cncc(-c3cn(-c4cc(NC(=O)c5ccc(C(C)(C)C)o5)cnc4C)nn3)c2)CC1` [I-3] stands 3 nM; under `Cc1ncc(NC(=O)c2cc(C)n(C(C)(C)C)n2)cc1-n1cc(-c2cncc(N3CCN(C(C)C)CC3)c2)nn1` [I-19], 8 nM. For `CCCc1cc(C(=O)Nc2cnc(C)c(-n3cc(-c4cncc(N5CCN(C6CC6)CC5)c4)nn3)c2)nn1C(C)(C)C` [I-32], half-maximal inhibition (IC50) was put at 71 nM. Under `Cc1ncc(NC(=O)c2ccc(C(C)(C)C)s2)cc1-n1cc(-c2cncc(N3CCN(C(C)(C)C)CC3)c2)nn1` [I-11] stands 6 nM. Regarding `CCN1CCN(c2cncc(-c3cn(-c4cc(NC(=O)c5cc(C(C)C)n(C(C)(C)C)n5)cnc4C)nn3)c2)CC1` [I-39], the IC50 is 25 nM.

Turning to `Cc1ncc(NC(=O)c2cc(C)n(C(C)(C)C)n2)cc1-n1cc(-c2cncc(N3CCCN(C)CC3)c2)nn1` [I-16], the half-inhibitory concentration (IC50) stood at 9 nM. Under `CCN1CCN(c2cncc(-c3cn(-c4cc(NC(=O)c5cc(C6CC6)n(C(C)(C)C)n5)cnc4C)nn3)c2)CC1` [I-43] stands 22 nM; under `Cc1ncc(NC(=O)c2ccc(C(C)(C)C)o2)cc1-n1cc(-c2cncc(N3CCN(CC4CC4)CC3)c2)nn1` [I-5], 3 nM; under `Cc1ncc(NC(=O)c2ccc(C(C)(C)C)o2)cc1-n1cc(-c2cncc(N3CCN(C(C)C)CC3)c2)nn1` [I-1], 4 nM. Under `CCN1CCN(c2cncc(-c3cn(-c4cc(NC(=O)c5cc(C)n(C(C)(C)C)n5)cnc4C)nn3)c2)CC1` [I-20] stands 7 nM; under `Cc1ncc(NC(=O)c2cc(C(C)C)n(C(C)(C)C)n2)cc1-n1cc(-c2cncc(N3CCN(C(C)C)CC3)c2)nn1` [I-38], 29 nM; under `Cc1ncc(NC(=O)c2ccc(C(C)(C)C)o2)cc1-n1cc(-c2cncc(N3CCN(C)CC3)c2)nn1` [I-2], 2 nM.

`CCCN1CCN(c2cncc(-c3cn(-c4cc(NC(=O)c5cc(C6CC6)n(C(C)(C)C)n5)cnc4C)nn3)c2)CC1` [I-44] had an IC50 of 30 nM. Take `CCN1CCN(c2cncc(-c3cn(-c4cc(NC(=O)c5cc(C)n(C(C)C)n5)cnc4C)nn3)c2)CC1` [I-46]: inhibition was half-maximal at 6 nM (IC50). Under `CCCN1CCN(c2cncc(-c3cn(-c4cc(NC(=O)c5cc(C)n(C(C)C)n5)cnc4C)nn3)c2)CC1` [I-48] stands 8 nM. Consider `Cc1ncc(NC(=O)c2cc(C)n(C(C)C)n2)cc1-n1cc(-c2cncc(N3CCN(C)CC3)c2)nn1` [I-45], for which the 50% inhibitory concentration (IC50) was found to be 9 nM. Under `Cc1ncc(NC(=O)c2cc(C)n(C(C)C)n2)cc1-n1cc(-c2cncc(N3CCN(C4CC4)CC3)c2)nn1` [I-49] stands 22 nM; under `CCCc1cc(C(=O)Nc2cnc(C)c(-n3cc(-c4cncc(N5CCN(C)CC5)c4)nn3)c2)nn1C(C)(C)C` [I-36], 18 nM; under `CCOCCN1CCN(c2cncc(-c3cn(-c4cc(NC(=O)c5ccc(C(C)(C)C)s5)cnc4C)nn3)c2)CC1` [I-8], 8 nM. Under `Cc1ncc(NC(=O)c2ccc(C(C)(C)C)s2)cc1-n1cc(-c2cncc(N3CCN(CC4CC4)CC3)c2)nn1` [I-10] stands 6 nM. Under `CCCc1cc(C(=O)Nc2cnc(C)c(-n3cc(-c4cncc(N5CCN(CCC)CC5)c4)nn3)c2)nn1C(C)(C)C` [I-35] stands 22 nM; under `Cc1ncc(NC(=O)c2ccc(C(C)(C)C)o2)cc1-n1cc(-c2cncc(N3CCN(C(C)(C)C)CC3)c2)nn1` [I-4], 4 nM; under `Cc1ncc(NC(=O)c2cc(C(C)C)n(C(C)(C)C)n2)cc1-n1cc(-c2cncc(N3CCN(C)CC3)c2)nn1` [I-37], 17 nM. The molecule `CCCN1CCN(c2cncc(-c3cn(-c4cc(NC(=O)c5cc(C)n(C(C)(C)C)n5)cnc4C)nn3)c2)CC1` [I-17] came in with a concentration for half-maximal inhibition (IC50) of 10 nM.

With `Cc1ncc(NC(=O)c2ccc(C(C)(C)C)s2)cc1-n1cc(-c2cncc(N3CCN(C)CC3)c2)nn1` [I-14], half-maximal inhibition (IC50) was put at 2 nM.

`CCCN1CCN(c2cncc(-c3cn(-c4cc(NC(=O)c5cc(CC)n(C(C)(C)C)n5)cnc4C)nn3)c2)CC1` [I-28] had an IC50 of 7 nM. Under `CCCc1cc(C(=O)Nc2cnc(C)c(-n3cc(-c4cncc(N5CCN(C(C)C)CC5)c4)nn3)c2)nn1C(C)(C)C` [I-34] stands 23 nM; under `CCOCCN1CCN(c2cncc(-c3cn(-c4cc(NC(=O)c5ccc(C(C)(C)C)o5)cnc4C)nn3)c2)CC1` [I-7], 5 nM; under `CCCc1cc(C(=O)Nc2cnc(C)c(-n3cc(-c4cncc(N5CCN(CC)CC5)c4)nn3)c2)nn1C(C)(C)C` [I-33], 16 nM. Under `COCCCN1CCN(c2cncc(-c3cn(-c4cc(NC(=O)c5ccc(C(C)(C)C)o5)cnc4C)nn3)c2)CC1` [I-6] stands 5 nM.

`COCCCN1CCN(c2cncc(-c3cn(-c4cc(NC(=O)c5ccc(C(C)(C)C)s5)cnc4C)nn3)c2)CC1` [I-9]: the IC50 is 7 nM. Under `CCCN1CCN(c2cncc(-c3cn(-c4cc(NC(=O)c5cc(C(C)C)n(C(C)(C)C)n5)cnc4C)nn3)c2)CC1` [I-40] stands 26 nM; under `Cc1ncc(NC(=O)c2cc(C3CC3)n(C(C)(C)C)n2)cc1-n1cc(-c2cncc(N3CCN(C(C)C)CC3)c2)nn1` [I-42], 22 nM. Under `Cc1ncc(NC(=O)c2cc(C)n(C(C)(C)C)n2)cc1-n1cc(-c2cncc(N3CCN(CC4CC4)CC3)c2)nn1` [I-22] stands 11 nM.

Take `CCc1cc(C(=O)Nc2cnc(C)c(-n3cc(-c4cncc(N5CCN(C)CC5)c4)nn3)c2)nn1C(C)(C)C` [I-30]: half-maximal inhibition (IC50) required 15 nM. Under `Cc1ncc(NC(=O)c2cc(C)n(C(C)(C)C)n2)cc1-n1cc(-c2cncc(N3CCN(C(C)(C)C)CC3)c2)nn1` [I-21] stands 9 nM. Under `Cc1ncc(NC(=O)c2cc(C3CC3)n(C(C)(C)C)n2)cc1-n1cc(-c2cncc(N3CCN(C)CC3)c2)nn1` [I-41] stands 16 nM; under `Cc1ncc(NC(=O)c2cc(C)n(C(C)(C)C)n2)cc1-n1cc(-c2cncc(N3CCN(C4CC4)CC3)c2)nn1` [I-15], 20 nM; under `CCc1cc(C(=O)Nc2cnc(C)c(-n3cc(-c4cncc(N5CCN(C6CC6)CC5)c4)nn3)c2)nn1C(C)(C)C` [I-26], 55 nM.

In turn, `CCN1CCN(c2cncc(-c3cn(-c4cc(NC(=O)c5ccc(C(C)(C)C)s5)cnc4C)nn3)c2)CC1` [I-12] registered an IC50 of 3 nM.

`CCOCCN1CCN(c2cncc(-c3cn(-c4cc(NC(=O)c5cc(C)n(C(C)(C)C)n5)cnc4C)nn3)c2)CC1` [I-24] registered a 50% inhibitory concentration (IC50) of 16 nM. Under `Cc1ncc(NC(=O)c2cc(C)n(C(C)C)n2)cc1-n1cc(-c2cncc(N3CCN(C(C)C)CC3)c2)nn1` [I-47] stands 6 nM.

In turn, `Cc1ncc(NC(=O)c2cc(C)n(C(C)C)n2)cc1-n1cc(-c2cncc(N3CCCN(C)CC3)c2)nn1` [I-50] showed a 50% inhibitory concentration (IC50) of 5 nM. Under `Cc1ncc(NC(=O)c2cc(C)n(C(C)(C)C)n2)cc1-n1cc(-c2cncc(N3CCCN(C(C)C)CC3)c2)nn1` [I-29] stands 19 nM; under `Cc1ncc(NC(=O)c2cc(C)n(C(C)(C)C)n2)cc1-n1cc(-c2cncc(N3CCN(C)CC3)c2)nn1` [I-18], 8 nM.

What is called IC50 is the concentration at which inhibition is half-maximal.
